Assay results from patent US9063123B2, “Transgenic mice expressing human toll-like receptor 8” (Dynavax Technologies Corporation, priority 2011, dated 2015).

Key:
Format in all cases: cell-based
[1] = test system: human peripheral blood mononuclear cells (PBMCs); assay: Cytokine production by human PBMCs stimulated with TLR7/TLR8 RNA PN (ELISA); conditions: 5×10^5 human PBMCs, 20, 100 or 200 μg/mL, 24 hours
Protocol: (§1) PN-based TLR8 ligand stabilized immunomodulatory RNA (5′-M2[…]-/glycerol/-[…]2-5′ (M2=C6-linker); SEQ ID NO:3) and PN-based TLR7 ligand stabilized immunomodulatory RNA (5′-[…]-/glycerol/-[…]-5′ (R=7-deazaguanosine); SEQ ID NO:2) were previously identified (Lan et al., PNAS 104:13750-13755, 2007). The effect of these TLR7— and TLR8-stimulating RNA PN was evaluated by measuring production of IL-6 and TNF-α in human peripheral blood mononuclear cells (PBMCs) and human monocytes (FIG. 2). 5×10^5 PBMCs or 2×10^5 monocytes from healthy human donors were stimulated with 20 μg/mL, 100 μg/mL, or 200 μg/mL of either TLR8 agonist or TLR7 agonist as indicated in FIG. 2. Twenty-four hours later supernatants were assessed for presence of inflammatory cytokines IL-6 and TNF-α by standard ELISA procedure.

human monocytes = assay: Cytokine production by human monocytes stimulated with TLR7/TLR8 RNA PN (ELISA); conditions: 2×10^5 human monocytes, 20, 100 or 200 μg/mL, 24 hours, compared with PBMCs
Protocol: as §1

human pDCs = assay: Cytokine production by human pDCs stimulated with TLR7/TLR8 RNA PN (ELISA); conditions: 1×10^5 human pDCs (negative for TLR8), 100 μg/mL, 24 hours
Protocol: The effect of TLR7 and TLR8-stimulating RNA PN were also evaluated in human pDCs by measuring production of IL-6, TNF-α, and IFN-α. […] 1×10^5 pDCs from healthy human donors were stimulated with 100 μg/mL of either TLR8 agonist or TLR7 agonist (Lan et al., PNAS 104:13750-13755, 2007) or medium alone as indicated in FIG. 3. Twenty-four hours later supernatants were assessed for presence of inflammatory cytokines IL-6, TNF-α and IFN-α by standard ELISA procedure.

Mouse splenocytes = assay: IL-12 and TNF-α production by mouse splenocytes (ELISA); conditions: 5×10^5 cells from 129 wt and TLR7KO mice, 100 μg/ml
Protocol: (§2) The effect of TLR7 and TLR8-stimulating RNA PNs was further evaluated in mouse cells by measuring IL-12 and TNF-α production (FIG. 4). Mouse splenocytes and PBMCs were prepared from 129 wt mice and TLR7KO mice, and 5×10^5 cells were stimulated with 100 μg/ml of either TLR8 or TLR7 agonist as indicated in FIG. 4. IL-12 and TNF-α were measured by ELISA using standard techniques.

Mouse PBMCs = assay: IL-12 and TNF-α production by mouse PBMCs (ELISA); conditions: 5×10^5 cells from 129 wt and TLR7KO mice, 100 μg/ml
Protocol: as §2

[2] = target: T1, human TLR8 expressed from the transgene in TLR8TGCL8 mice (Homo sapiens, UniProt Q9NR97); assay: Cytokine production by blood cells from TLR8TGCL8 transgenic mice (ELISA); conditions: 5×10^5 blood cells from TLR8TGCL8 mice vs C57BL/6 WT, 200 or 100 μg/mL, 24 hours
T1 construct: the human BAC carrying TLR8 gene was obtained from the RPCIB-753 BAC library; expressed in transfected cells; host or cells: Blood cells, bone marrow cells and PBMC of hTLR8 transgenic mice, and the whole animals; The mice came from C57BL/6NTac ES cells transfected with the BAC: the Clone 8 germline line and chimeras
T1 sequence (Q9NR97 27-1041): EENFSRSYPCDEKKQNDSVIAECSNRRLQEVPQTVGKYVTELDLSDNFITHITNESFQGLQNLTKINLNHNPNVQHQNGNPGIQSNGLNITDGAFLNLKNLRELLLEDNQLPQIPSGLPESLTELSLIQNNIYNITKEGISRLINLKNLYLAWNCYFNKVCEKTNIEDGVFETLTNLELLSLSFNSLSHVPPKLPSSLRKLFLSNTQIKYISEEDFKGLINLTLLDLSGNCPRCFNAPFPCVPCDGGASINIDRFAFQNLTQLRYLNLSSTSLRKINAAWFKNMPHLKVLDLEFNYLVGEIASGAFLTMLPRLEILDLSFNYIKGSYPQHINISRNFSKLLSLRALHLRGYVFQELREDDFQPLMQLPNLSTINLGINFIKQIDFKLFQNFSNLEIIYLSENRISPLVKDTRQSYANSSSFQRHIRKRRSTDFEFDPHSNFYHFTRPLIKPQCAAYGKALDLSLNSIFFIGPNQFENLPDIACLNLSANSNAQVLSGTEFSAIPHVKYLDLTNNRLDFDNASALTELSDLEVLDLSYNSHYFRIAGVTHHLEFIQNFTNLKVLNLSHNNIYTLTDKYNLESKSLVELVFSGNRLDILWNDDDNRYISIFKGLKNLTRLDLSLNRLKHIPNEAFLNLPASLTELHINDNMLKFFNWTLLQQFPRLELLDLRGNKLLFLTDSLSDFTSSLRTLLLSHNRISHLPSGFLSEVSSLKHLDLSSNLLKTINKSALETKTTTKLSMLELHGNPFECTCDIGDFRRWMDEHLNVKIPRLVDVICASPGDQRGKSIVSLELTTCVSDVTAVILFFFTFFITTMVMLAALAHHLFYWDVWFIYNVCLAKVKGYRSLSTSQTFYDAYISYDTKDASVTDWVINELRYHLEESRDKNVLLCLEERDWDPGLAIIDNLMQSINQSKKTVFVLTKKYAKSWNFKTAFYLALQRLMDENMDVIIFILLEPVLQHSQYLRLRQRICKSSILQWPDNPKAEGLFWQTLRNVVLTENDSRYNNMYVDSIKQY
Text: (§3) PN-based TLR8 ligand stabilized immunomodulatory RNA (5′-M2[…]-/glycerol/-[…]2-5′ (M2=C6-linker); SEQ ID NO:3) and PN-based TLR7 ligand stabilized immunomodulatory RNA (5′-[…]-/glycerol/-[…]-5′ (R=7-deazaguanosine); SEQ ID NO:2) were previously identified (Lan et al., PNAS 104:13750-13755, 2007). To confirm that human TLR8 expressed from the transgene in TLR8TGCL8 mice is functional and sensitive to stimulation, the effect of TLR8-stimulating RNA PN (SEQ ID NO:3) on cytokine production was assessed. 5×10^5 blood cells from TLR8TGCL8 transgenic mice or C57BL/6 WT animals were stimulated with TLR8 agonist at different concentrations as shown in FIG. 13. 24 hours later supernatants were harvested and assayed for mouse IL-12, TNF-α and IL-6 using standard ELISA procedures. In addition, 5×10^5 bone marrow cells from TLR8TGCL8 transgenic mice or C57BL/6 WT animals were stimulated with TLR8 agonist (SEQ ID NO:3) at different concentrations as shown in FIG. 14. Mouse TNF-α and IL-6 production was assayed in supernatants harvested after 24 hours.

[3] = target: T1, human TLR8 expressed from the transgene in TLR8TGCL8 mice; assay: Cytokine production by bone marrow cells from TLR8TGCL8 transgenic mice (ELISA); conditions: 5×10^5 bone marrow cells from TLR8TGCL8 mice vs C57BL/6 WT, 100 or 50 μg/mL, 24 hours
Text: as §3

Substance | production of IL-6 and TNF-α in PBMCs [1] | production of IL-6 and TNF-α in monocytes (human monocytes) | stimulation of pDCs (IL-6, TNF-α and IFN-α production) (human pDCs) | stimulation of mouse splenocytes (IL-12 and TNF-α production) (Mouse splenocytes) | stimulation of mouse PBMCs (IL-12 and TNF-α production) (Mouse PBMCs) | mouse IL-12, TNF-α and IL-6 production by blood cells [2] | mouse TNF-α and IL-6 production by bone marrow cells [3]
5′-M2UGCUGCUUGUG-/glycerol/-GUGUUCGUCGUM2-5′ (M2=C6-linker) (NUGCUGCUUGUGNGUGUUCGUCGUN; listed as RNA, chemistry not fully specified) [TLR8 agonist, PN-based TLR8 ligand stabilized immunomodulatory RNA, previously identified (Lan et al., PNAS 2007)] | stimulated production | to a lesser extent | did not stimulate | did not stimulate | did not stimulate | Only cells from transgenic animals responded | Only cells from transgenic animals responded
5′-URCURCUUCUR-/glycerol/-RUCUUCRUCRU-5′ (R=7-deazaguanosine) [TLR7 agonist] | stimulated production | to a lesser extent |  |  |  |  | 
